# Experimental data as given in patent US20240057598A1, “USE OF 2-AMINO-3-METHYLHEXANOIC ACID AS PLANT IMMUNITY INDUCER” (NANJING AGRICULTURAL UNIVERSITY, priority 2020, published 2024).
# Legend:
# A. ureafaciens = details: cited from earlier work
# [1] = test system: tomato spotted wilt virus; test: Induced resistance of tobacco to tomato spotted wilt virus infection; format: in vivo; details: for Relative immune effect / Disease index: tobacco; for Content of virus protein: tobacco leaves, 3 days, Western blot, relative
# Procedure: Tomato spotted wilt virus was obtained from Yunnan Province, China. The initial virus source was stored in a refrigerator at −80° C. Nicotiana benthamiana leaves were inoculated with the virus by mechanical inoculation to activate the virus. Viral plasmids were extracted and transformed by competent cells of Escherichia coli. The competent cells were spread on a resistant plate and cultured. Single colonies were selected for PCR screening. Positive colonies were selected for sequencing and subsequent plasmid extraction. Plasmids with normal sequencing were added to competent cells of Agrobacterium, and the Agrobacterium was transformed by electroporation. A solution of the transformed Agrobacterium was spread on the correspondingly resistant screening plate, and cultured at 28° C. (±1) for 48 h. Single colonies of the Agrobacterium on the transformation plate were selected, placed in 5 mL of correspondingly resistant LB medium, and cultured overnight at 28° C. and 180 rpm. Bacterial cells were collected by 2 min of centrifugation at 6,000 rpm, and suspended with an Agrobacterium treatment buffer solution (10 mM MgCl2, 10 mM MES, 10 μM Acetosyringone) until the OD600 value of the suspension was 0.5, and the suspension was treated at 28° C. for 3 h in dark for use.
# 2-amino-3-methylhexanoic acid was dissolved in distilled water and then diluted with distilled water by gradient into solutions of 0 nM, 0.5 nM, 1 nM and 10 nM. Nicotiana benthamiana seeds were sowed in a small pot, and cultured at 22 (±1)° C., 16 h/8 h light for 5 weeks. Healthy tobacco plants (preferably with 8-10 leaves) were selected and treated with the 2-amino-3-methylhexanoic acid solutions of the above concentrations to conduct spray treatment on the stems and leaves. The treatment was repeated once after 24 h and conducted twice in total. After 24 h, the Agrobacterium solution with a uniform concentration was extracted using a 1 mL syringe, the injection port of the syringe was pressed directly on a small hole on the back of a tobacco leaf, and the bacterial solution was slowly pushed to soak the whole leaf. The soaked tobacco was moved to an environment of 22 (±1)° C. and cultured under 16 h/8 h light. 3 days later, microscopic observation was conducted. At the same time, samples were taken. The gray scale of protein bands was analyzed by Western blot combined with ImageJ software, and the relative protein content of the virus in the leaves was determined. The incidence of tobacco leaves was observed 15 days later, and the disease indexes were recorded according to the Grade and Investigation Method of Tobacco Diseases and Insect Pests (GB/T23222-2008) using a formula as follows: […]
# Grading standard of tomato spotted wilt virus infection (grading and investigation were conducted per plant): • Grade 0: The whole plant is disease free. • Grade 1: Heart leaves have clear veins or are slightly mottled, and the diseased plant is not obviously dwarfed. • Grade 3: One-third of leaves are mottled without deformation, or the diseased plant is dwarfed to three quarters or more of a normal plant in height. • Grade 5: One-third to one-half of leaves are mottled, or a few leaves are deformed, or the main veins become black, or the plant is dwarfed to two-thirds to three-quarters of a normal plant in height. • Grade 7: One-half to two-thirds of leaves are mottled or deformed, or a few main and lateral veins become necrotic, or the plant is dwarfed to one-half to two-thirds of a normal plant in height. • Grade 9: The leaves of the whole plant are mottled, seriously deformed or necrotic, or the diseased plant is dwarfed to […] of a normal plant in height.
# wheat = test: Induced resistance of wheat to high temperature stress; format: in vivo; details: for Dry weight of overground part / Fresh weight of overground part / Heat injury index: 45° C. 9 h, 7 days recovery
# Procedure: […] A blank control was additionally set, and 0.02% Tween 20 was added as a surfactant. 4 groups of repetitions were set for each concentration, and a normal temperature blank control was set at the same time. Ryegrass seeds were weighed according to 0.8 g per pot, sowed in a pot with a diameter of 8.5 cm, and planted in a greenhouse at a temperature of 25° C., a humidity of 60%-70%, and a light intensity of 200 μmolm^−2s^−1 (12 h light/12 h dark). On the 8th day of the seedling stage, the ryegrass was sprayed with the 2-amino-3-methylhexanoic acid solutions on the leaves twice in 24 h. 24 h after the second treatment, the plants were transferred to a light incubator at a temperature of 45° C. for conducting high temperature stress treatment for 12 h, and then the plants were taken out and transferred to a greenhouse at a temperature of 25° C. for 7 days of recovery. The injured conditions of the plants were observed and counted, and the heat injury grade was calculated. […] After the counting, the fresh weight of the aboveground part of the plant was weighed, and then the aboveground part was baked in an 85° C. oven for 48 h to determine the dry weight.
# Wheat seeds were weighed according to 1.5 g per pot, and planted by a method and under conditions the same as those of ryegrass. When the wheat grew for two weeks in the seedling stage, the experiment was conducted. High temperature stress was conducted for 9 h, and the treatment method and subsequent statistical indexes were the same as those of the ryegrass mentioned above.
# Brevibacterium helvolum = details: cited from earlier work
# [2] = each concentration in range 0.5-10 nM
compound,measurement,setting,value
CCCC(C)C(N)C(=O)O (centres unmarked) [2-amino-3-methylhexanoic acid],Inhibitory effect,A. ureafaciens,slight inhibitory effect
same,Relative immune effect,[1]; 0.5 nM,59.06%
same,Relative immune effect,[1]; 1 nM,52.36%
same,Content of virus protein,[1]; 1 nM,0.33 ± 0.001c
same,Disease index,"[1]; 1 nM, 15 days after inoculation",44.81 ± 3.90c
same,Relative immune effect,[1]; 10 nM,22.05%
same,Content of virus protein,[1]; 10 nM,0.44 ± 0.007b
same,Disease index,"[1]; 10 nM, 15 days after inoculation",73.33 ± 2.22b
same,Disease index,[1]; [2],lower than 75
same,Relative immune effect,[1]; [2],≥ 20%
same,Dry weight of overground part,wheat; 10 nM,0.72 ± 0.04bc g
same,Fresh weight of overground part,wheat; 10 nM,1.76 ± 0.13c g
same,Heat injury index,wheat; 10 nM,85%
same,Dry weight of overground part,wheat; 100 nM,0.75 ± 0.04c g
same,Fresh weight of overground part,wheat; 100 nM,1.87 ± 0.12c g
same,Heat injury index,wheat; 100 nM,75%
same,Dry weight of overground part,"wheat; 1,000 nM",0.78 ± 0.05bc g
same,Fresh weight of overground part,"wheat; 1,000 nM",2.11 ± 0.30c g
same,Heat injury index,"wheat; 1,000 nM",65%
same,Decrease of heat injury index,"wheat; 10,000 nM",40%
same,Dry weight of aboveground part higher than untreated control group,"wheat; 10,000 nM",31.94%
same,Fresh weight of aboveground part higher than untreated control group,"wheat; 10,000 nM",102.84%
same,Dry weight of overground part,"wheat; 10,000 nM",0.95 ± 0.04ab g
same,Fresh weight of overground part,"wheat; 10,000 nM",3.57 ± 0.50b g
same,Heat injury index,"wheat; 10,000 nM",40%
same,Inhibitory effect,Brevibacterium helvolum,no inhibitory effect
